# According to PubChem BioAssay (NCI):
#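 Test compounds were applied to cells in 96-well plates for 48 hours at 5 doses. Here, GI50 denotes the concentration required for 50% inhibition of growth. Definition used: TGI = concentration required for complete inhibition of growth.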
# Columns and labels:
# Test in all cases: DTP human tumour cell line panel, 48 h
# SK-MEL-5 melanoma = system: SK-MEL-5 melanoma
# ACHN renal = system: ACHN renal
# TK-10 renal = system: TK-10 renal
# MALME-3M melanoma = system: MALME-3M melanoma
# HCT-116 colon = system: HCT-116 colon
# HOP-62 NSCLC = system: HOP-62 NSCLC
# SNB-75 CNS = system: SNB-75 CNS
# BT-549 breast = system: BT-549 breast
# OVCAR-8 ovarian = system: OVCAR-8 ovarian
# EKVX NSCLC = system: EKVX NSCLC
# HS 578T breast = system: HS 578T breast
# SW-620 colon = system: SW-620 colon
# RPMI-8226 leukemia = system: RPMI-8226 leukemia
# HT29 colon = system: HT29 colon
# MOLT-4 leukemia = system: MOLT-4 leukemia
# IGROV1 ovarian = system: IGROV1 ovarian
# K-562 leukemia = system: K-562 leukemia
# OVCAR-5 ovarian = system: OVCAR-5 ovarian
# UO-31 renal = system: UO-31 renal
# 786-0 renal = system: 786-0 renal
# OVCAR-4 ovarian = system: OVCAR-4 ovarian
# SN12C renal = system: SN12C renal
# SK-OV-3 ovarian = system: SK-OV-3 ovarian
# A549 NSCLC = system: A549 NSCLC
# COLO 205 colon = system: COLO 205 colon
# MDA-MB-231 breast = system: MDA-MB-231 breast
# MCF7 breast = system: MCF7 breast
# KM12 colon = system: KM12 colon
# SK-MEL-2 melanoma = system: SK-MEL-2 melanoma
# SK-MEL-28 melanoma = system: SK-MEL-28 melanoma
# U251 CNS = system: U251 CNS
# OVCAR-3 ovarian = system: OVCAR-3 ovarian
# CAKI-1 renal = system: CAKI-1 renal
# RXF 393 renal = system: RXF 393 renal
# DU-145 prostate = system: DU-145 prostate
# SNB-19 CNS = system: SNB-19 CNS
# MDA-MB-435 = system: MDA-MB-435
# A498 renal = system: A498 renal
# SF-539 CNS = system: SF-539 CNS
# NCI-H23 lung = system: NCI-H23 lung
# NCI-H522 lung = system: NCI-H522 lung
# SF-268 CNS = system: SF-268 CNS
# LOX IMVI melanoma = system: LOX IMVI melanoma
# HCT-15 colon = system: HCT-15 colon
# SR leukemia = system: SR leukemia
# PC-3 prostate = system: PC-3 prostate
# SF-295 CNS = system: SF-295 CNS
# HOP-92 NSCLC = system: HOP-92 NSCLC
# NCI/ADR-RES ovarian = system: NCI/ADR-RES ovarian
# M14 melanoma = system: M14 melanoma
# HCC-2998 colon = system: HCC-2998 colon
# UACC-257 melanoma = system: UACC-257 melanoma
# HL-60(TB) leukemia = system: HL-60(TB) leukemia
# CCRF-CEM leukemia = system: CCRF-CEM leukemia
# NCI-H460 lung = system: NCI-H460 lung
# T-47D breast = system: T-47D breast
# UACC-62 melanoma = system: UACC-62 melanoma
structure (smiles),measurement,setting,value
O=C1CCC/C=C\C[C@H]2C=CC(=O)/C2=C/C[C@H](CCc2cccc(C(F)(F)F)c2)O1,GI50,SK-MEL-5 melanoma,1.69 µM
same,TGI,SK-MEL-5 melanoma,3.09 µM
same,GI50,ACHN renal,1.19 µM
same,TGI,ACHN renal,2.6 µM
same,GI50,TK-10 renal,2.66 µM
same,TGI,TK-10 renal,5.19 µM
same,GI50,MALME-3M melanoma,2.25 µM
same,TGI,MALME-3M melanoma,7.1 µM
same,GI50,HCT-116 colon,0.327 µM
same,TGI,HCT-116 colon,1.48 µM
same,GI50,HOP-62 NSCLC,2.84 µM
same,TGI,HOP-62 NSCLC,6.83 µM
same,GI50,SNB-75 CNS,2.02 µM
same,TGI,SNB-75 CNS,5.21 µM
same,GI50,BT-549 breast,2.57 µM
same,TGI,BT-549 breast,7.99 µM
same,GI50,OVCAR-8 ovarian,0.495 µM
same,TGI,OVCAR-8 ovarian,5.64 µM
same,GI50,EKVX NSCLC,1.94 µM
same,TGI,EKVX NSCLC,4.08 µM
same,GI50,HS 578T breast,4.78 µM
same,TGI,HS 578T breast,56.7 µM
same,GI50,SW-620 colon,2.87 µM
same,TGI,SW-620 colon,9.06 µM
same,GI50,RPMI-8226 leukemia,0.628 µM
same,TGI,RPMI-8226 leukemia,6.73 µM
same,GI50,HT29 colon,1.11 µM
same,TGI,HT29 colon,3.39 µM
same,GI50,MOLT-4 leukemia,2.14 µM
same,TGI,MOLT-4 leukemia,6.26 µM
same,GI50,IGROV1 ovarian,3.06 µM
same,TGI,IGROV1 ovarian,9.53 µM
same,GI50,K-562 leukemia,0.692 µM
same,TGI,K-562 leukemia,6.44 µM
same,GI50,OVCAR-5 ovarian,4.05 µM
same,TGI,OVCAR-5 ovarian,11.3 µM
same,GI50,UO-31 renal,1.57 µM
same,TGI,UO-31 renal,3 µM
same,GI50,786-0 renal,1.99 µM
same,TGI,786-0 renal,3.68 µM
same,GI50,OVCAR-4 ovarian,3.78 µM
same,TGI,OVCAR-4 ovarian,15.9 µM
same,GI50,SN12C renal,3.66 µM
same,TGI,SN12C renal,12.9 µM
same,GI50,SK-OV-3 ovarian,2.92 µM
same,TGI,SK-OV-3 ovarian,7.75 µM
same,GI50,A549 NSCLC,2.31 µM
same,TGI,A549 NSCLC,5.56 µM
same,GI50,COLO 205 colon,1.58 µM
same,TGI,COLO 205 colon,4.16 µM
same,GI50,MDA-MB-231 breast,4.41 µM
same,TGI,MDA-MB-231 breast,18.2 µM
same,GI50,MCF7 breast,0.287 µM
same,TGI,MCF7 breast,2.58 µM
same,GI50,KM12 colon,1.64 µM
same,TGI,KM12 colon,3.35 µM
same,GI50,SK-MEL-2 melanoma,2.06 µM
same,TGI,SK-MEL-2 melanoma,4.94 µM
same,GI50,SK-MEL-28 melanoma,2.56 µM
same,TGI,SK-MEL-28 melanoma,6.75 µM
same,GI50,U251 CNS,1.26 µM
same,TGI,U251 CNS,2.85 µM
same,GI50,OVCAR-3 ovarian,1.46 µM
same,TGI,OVCAR-3 ovarian,3.23 µM
same,GI50,CAKI-1 renal,4.04 µM
same,TGI,CAKI-1 renal,16 µM
same,GI50,RXF 393 renal,1.66 µM
same,TGI,RXF 393 renal,3.08 µM
same,GI50,DU-145 prostate,1.66 µM
same,TGI,DU-145 prostate,4.58 µM
same,GI50,SNB-19 CNS,2.22 µM
same,TGI,SNB-19 CNS,7.04 µM
same,GI50,MDA-MB-435,0.462 µM
same,TGI,MDA-MB-435,2.7 µM
same,GI50,A498 renal,1.68 µM
same,TGI,A498 renal,3.22 µM
same,GI50,SF-539 CNS,2.61 µM
same,TGI,SF-539 CNS,6.81 µM
same,GI50,NCI-H23 lung,2.16 µM
same,TGI,NCI-H23 lung,5.89 µM
same,GI50,NCI-H522 lung,1.23 µM
same,TGI,NCI-H522 lung,3.77 µM
same,GI50,SF-268 CNS,2.77 µM
same,TGI,SF-268 CNS,8.3 µM
same,GI50,LOX IMVI melanoma,0.44 µM
same,TGI,LOX IMVI melanoma,1.82 µM
same,GI50,HCT-15 colon,1.23 µM
same,TGI,HCT-15 colon,4.07 µM
same,GI50,SR leukemia,0.627 µM
same,TGI,SR leukemia,5.62 µM
same,GI50,PC-3 prostate,1.79 µM
same,TGI,PC-3 prostate,4.74 µM
same,GI50,SF-295 CNS,2.15 µM
same,TGI,SF-295 CNS,4.83 µM
same,GI50,HOP-92 NSCLC,2.29 µM
same,TGI,HOP-92 NSCLC,4.77 µM
same,GI50,NCI/ADR-RES ovarian,0.748 µM
same,TGI,NCI/ADR-RES ovarian,11.3 µM
same,GI50,M14 melanoma,1.76 µM
same,TGI,M14 melanoma,5.32 µM
same,GI50,HCC-2998 colon,2.01 µM
same,TGI,HCC-2998 colon,3.54 µM
same,GI50,UACC-257 melanoma,2.11 µM
same,TGI,UACC-257 melanoma,5.18 µM
same,GI50,HL-60(TB) leukemia,2.1 µM
same,TGI,HL-60(TB) leukemia,6.88 µM
same,GI50,CCRF-CEM leukemia,0.397 µM
same,TGI,CCRF-CEM leukemia,11.4 µM
same,GI50,NCI-H460 lung,3.18 µM
same,TGI,NCI-H460 lung,10.1 µM
same,GI50,T-47D breast,1.78 µM
same,TGI,T-47D breast,7.12 µM
same,GI50,UACC-62 melanoma,2.34 µM
same,TGI,UACC-62 melanoma,7.52 µM
